Tests used:
[1] = tested on: SARS-CoV-2; assay: Example 23: open label study in hospitalized male and female SARS-CoV-2 patients, survival; type: in vivo, human; settings: average of 28 days of treatment; 80 mg qd; 31 hospitalized male and female patients, score 6 on 8 point COVID-19 ordinal scale (subjects not in study 3%)
[2] = tested on: SARS-CoV-2; assay: Example 22: double-blinded placebo controlled study in hospitalized female SARS-CoV-2 patients, survival; type: in vivo, human; settings: following 14 days of treatment; 80 mg qd; 15 hospitalized female patients, score 4-6 on 8 point COVID-19 ordinal scale (control group 67%)
Experimental: The patients were taking birth control and agreed not to engage in unprotected sex for at least 90 days post last dosing. None of the women were lactating.
15 subjects were assigned to HC-1119 treatment 80 mg qd. The other 13 subjects received standard treatment+HC-1119 placebo.

[3] = tested on: SARS-CoV-2; assay: Example 21: double-blinded placebo controlled study in hospitalized male SARS-CoV-2 patients, survival at day 14; type: in vivo, human; settings: following 14 days of treatment; 80 mg qd; 15 hospitalized male patients, score 4-6 on 8 point COVID-19 ordinal scale (control group 55%)
Experimental: The primary outcome was survival at day 14.
15 subjects were assigned to HC-1119 treatment 80 mg qd. The other 15 subjects received standard treatment+HC-1119 placebo.

[4] = tested on: SARS-CoV-2; assay: Example 24: double-blinded placebo controlled study in COVID-19 outpatients, rate of hospitalization at day 14; type: in vivo, human; settings: following 14 days of treatment; 80 mg qd; 28 male and female outpatients, score 1-2 on 8 point COVID-19 ordinal scale (control group 20%)
Experimental: The primary outcome was the rate of hospitalization at day 14.
28 subjects were assigned to HC-1119 treatment 80 mg qd. The other 28 subjects received standard treatment+HC-1119 placebo. Following 14 days of treatment, 1% of the subjects in the HC-1119 were hospitalized compared to 20% of the subjects in the control group were hospitalzied.

[5] = tested on: SARS-CoV-2; assay: Example 2: double-blinded placebo controlled prophylaxis study in health care workers, SARS-CoV-2 test at day 28; settings: 10 mg/Kg/day oral, of 50 male and female health care workers negative at baseline (placebo 9 of 47)
Experimental: Example 2: A double-blinded placebo controlled study was conducted on 97 male and female health care workers working at two hospital emergency room departments.
At baseline, all subjects were tested negative for SARS-CoV-2 infection. […] The reminder 47 subjects were given a placebo oral pill. At day 28 all subjects were tested for SARS-CoV-2 infection.

[6] = tested on: SARS-CoV-2; assay: Example 7: double-blinded placebo controlled study in hospitalized male SARS-CoV-2 patients, survival; type: in vivo, human; settings: following 15 days of treatment; injection 300 mg; 60 hospitalized male patients (control group 64%)
Experimental: 60 subjects were given an injection of cyproterone acetate (300 mg). The other 53 subjects received standard treatment. Following 15 days of treatment, 84% of the subjects in the cyproterone acetate survived while 64% of the control group survived.

[7] = tested on: SARS-CoV-2; type: in vivo; settings: 1 admitted patient (standard care average 3.6)
[8] = tested on: fetal pulmonary surfactant production; settings: rabbits, males and females; cited from earlier work
[9] = tested on: SARS-CoV-2; assay: Example 5: double-blinded placebo controlled prophylaxis study in male health care workers, SARS-CoV-2 test at day 28; type: in vivo, human; settings: 0.25 mg/day oral
[10] = tested on: SARS-CoV-2; assay: Example 4: double-blinded placebo controlled study in hospitalized male SARS-CoV-2 patients, survival; type: in vivo, human; settings: following 15 days of treatment; 160 mg qd; 15 hospitalized male patients (control group 7%)
Experimental: 15 subjects were assigned to enzalutamide treatment 160 mg qd. The other 15 subjects received standard treatment. Following 15 days of treatment, 20% of the subjects in the enzalutamide survived while 7% of the control group survived.

[11] = tested on: SARS-CoV-2; assay: Example 3: double-blinded placebo controlled prophylaxis study in male health care workers, SARS-CoV-2 test at day 28; type: in vivo, human; settings: 750 mg/day oral, of 18 male health care workers negative at baseline (placebo 3 of 10)
[12] = tested on: SARS-CoV-2; type: in vivo, human; settings: 3 admitted patients (standard care 4.0)
Experimental: Example 19: A controlled study was conducted on 90 male patients with average age of 51 years old. […] The treatment arm was prescribed nilutamide (300 mg) orally once daily at the start of the trial, the control arm received standard care.
The patients BCRSS score was 1.3.

[13] = tested on: furin; settings: human hepatoma cell lines (Chen et al. 2008); cited from earlier work

[2H]C([2H])([2H])NC(=O)c1ccc(N2C(=S)N(c3ccc(C#N)c(C(F)(F)F)c3)C(=O)C2(C)C)cc1F [HC-1119]
subjects survived [1]: 72%
subjects survived [2]: 91.8%
subjects survived [3]: 96.3%
subjects hospitalized [4]: 1%

C=C(C)[C@@H]1CCC(C)=C[C@H]1c1c(O)cc(CCCCC)cc1O [cannabidiol]
subjects tested positive for SARS-CoV-2 [5]: 2 subjects

CC(=O)O[C@]1(C(C)=O)CC[C@H]2[C@@H]3C=C(Cl)C4=CC(=O)[C@@H]5C[C@@H]5[C@]4(C)[C@H]3CC[C@@]21C [cyproterone acetate]
subjects survived [6]: 84%

CC(O)c1cc(C(=O)N[C@@H](C)Cn2ccc(-c3ccc(C#N)c(Cl)c3)n2)[nH]n1 (some centres unmarked) [darolutamide]
BCRSS score of the admitted patient [7]: 2

C[C@]12CCC(=O)C[C@@H]1CC[C@@H]1[C@@H]2CC[C@]2(C)[C@@H](O)CC[C@@H]12 [dihydrotestosterone]
effect on fetal pulmonary surfactant production [8]: inhibit fetal pulmonary surfactant production

C[C@]12C=CC(=O)N[C@@H]1CC[C@@H]1[C@@H]2CC[C@]2(C)[C@@H](C(=O)Nc3cc(C(F)(F)F)ccc3C(F)(F)F)CC[C@@H]12 [dutasteride]
subjects tested positive for SARS-CoV-2 (percent) ([9]; 68 male health care workers (placebo 17%)): 4.4%
subjects tested positive for SARS-CoV-2 (number) ([9]; of 68 male health care workers negative at baseline (placebo 9 of 53)): 3 subject

CNC(=O)c1ccc(N2C(=S)N(c3ccc(C#N)c(C(F)(F)F)c3)C(=O)C2(C)C)cc1F [enzalutamide]
subjects survived [10]: 20%

CC(C)C(=O)Nc1ccc([N+](=O)[O-])c(C(F)(F)F)c1 [flutamide]
subjects tested positive for SARS-CoV-2 [11]: 1 subject

CC1(C)NC(=O)N(c2ccc([N+](=O)[O-])c(C(F)(F)F)c2)C1=O [nilutamide]
BCRSS score of admitted patients [12]: 1.3

N[C@@H](Cc1cc(I)c(Oc2ccc(O)c(I)c2)c(I)c1)C(=O)O [thyroid hormone T3]
furin expression [13]: up-regulated

From US20210299101A1, “SYSTEMS, METHODS, AND KITS FOR DIAGNOSTICS AND TREATMENT OF VIRAL RESPIRATORY INFECTION” (priority 2020, published 2021)
